Assay results as given in US11236122B2, “Triterpene amine derivatives” (DFH THERAPEUTICS, priority 2018, dated 2022).
Counter-ions that a name gives are not always drawn.

How the values were obtained:
[1] = tested on: pNL4-3 SP1-V7A in MT-4 cells; assay: Antiviral assay in MT-4 cells (RT readout), SP1-V7A; type: cell-based, HIV-1; conditions: Human immunodeficiency virus 1, MT4, 96 h, read-out: Antiviral Assay IC50 (nM) SP1 V7A
Experimental: (§1) Cell culture, plasmids and transfections. The MT-4 T-cell line was maintained in RPMI-1640 medium supplemented with 10% (vol/vol) fetal bovine serum (FBS), 2 mM glutamine, 100 U/mL penicillin and 100 μg/mL streptomycin at 37° C. in a humidified 5% CO2 atmosphere. HeLa and 293T cells were maintained in Dulbecco's modified Eagle's medium (DMEM) supplemented with 5% (vol/vol) FBS, 2 mM glutamine, 100 U/mL penicillin and 100 μg/mL streptomycin. Molecular clones used in this study were WT pNL4-3 and the derivative encoding a Val-to-Ala mutation at SP1 residue 7, referred to as SP1-V7A. The MT-4 T-cell line was transfected the DEAE/dextran procedure; HeLa and 293T cells were transfected with linear polyethylenimine (L-PEI) or Lipofectamine 2000 (Invitrogen) as recommended by the supplier.
(§2) Antiviral assays. To produce HIV-1 stocks, 293T cells were transfected with WT pNL4-3 or the SP1-V7A derivative and culture supernatants were collected 24 h post transfection. RT-normalized virus supernatants were used to infect MT-4 cells at room temperature for 30 min. Cells were then cultured in the presence of serial dilutions of compounds. […] The IC50s in primary peripheral blood mononuclear cells (PBMCs) were calculated with a multi-clade panel of HIV-1 isolates by Southern Research Institute (Frederick, Md.). […]

[2] = Cytotoxicity assay CellTiter-Blue, HeLa; type: cell-based; conditions: human; HeLa cells, 4 to 8 days; mean ± SEM, three experiments
Experimental: (§3) Cytotoxicity assays. Cytotoxicity was measured with CellTiter-Blue® Cell Viability Assay according to the manufacturer's protocol (Promega). Two cell lines, MT-4 and HeLa, were used in this assay. Cells were incubated with serial dilution of compounds at 37° C. for 4 to 8 days and subjected to CellTiter-Blue Reagent. The fluorescent signal was measured at 560 nm Ex/590 nm Em by a plate reader (TECAN, Infinite® M1000 PRO). The 50% cytotoxic concentrations (CC50s) were defined as compound concentrations at which the fluorescent signals were reduced by 50%/relative to the no-inhibitor (DMSO only) controls using GraphPad Prism 6 software and are reported in Table 1.

WT pNL4-3 in MT-4 cells = assay: Antiviral assay in MT-4 cells (RT readout), WT NL4-3; type: cell-based, HIV-1; conditions: Human immunodeficiency virus 1, NL43, MT4, 96 h, read-out: Antiviral Assay IC50 (nM) NL4-3
Experimental: as §1, §2

[3] = Cytotoxicity assay CellTiter-Blue, MT-4; type: cell-based; conditions: human; MT-4 cells, 4 to 8 days; mean ± SEM, three experiments
Experimental: as §3

SMILES: C=C(C)[C@@H]1CC[C@]2(CCNC3CCN(CCO)CC3)CC[C@]3(C)[C@H](CC[C@@H]4[C@@]5(C)CC[C@H](OC(=O)CC(C)(C)CC(=O)O)C(C)(C)[C@@H]5CC[C@]43C)[C@@H]12 [Compound 51f, (3β)-17-[2-[[1-(2-Hydroxyethyl)piperidin-4-yl]amino]ethyl]-28-norlup-20(29)-en-3-ol, 3-(Hydrogen 3,3-Dimethylpentanedioate), Bis(trifluoroacetate) Salt]
- IC50 [1]: 8 ± 2 nM
- CC50 [2]: > 1000 nM
- IC50 (WT pNL4-3 in MT-4 cells): 21 ± 19 nM
- CC50 [3]: 366 ± 44 nM
